This assay has as its system TRF1, mutp53, hTERT, TRF2, c-myc, and 53BP1. The experiment in a line: Western blot in BEL-7404 xenograft models. It is filed as in vivo, BALB/c nude mice. To be noted: 8 mg/kg and 4 mg/kg. As for the experimental part: (E–H) In vivo tumor growth inhibition activity of complex 6 (4.0, 8.0 mg/kg/d) treated of BEL-7402 model with 4.0 and 8.0 mg/kg/d, comparing with cisplatin (2 mg/kg/2 days). (A) and (E). Changes in tumor volume between treatment groups (including complex 6 (4.0, 8.0 mg/kg/d), 5-FU (20 mg/kg/2 days) or cisplatin (2 mg/kg/2 days)) and vehicle (saline) group of BEL-7404 tumor-bearing mice and BEL-7402 tumor-bearing mice. Data of tumor growth were tracked by the mean tumor volume (mm^3) ± SD (n = 6) and calculated as percent TGI (tumor growth inhibition, %) values. (B and F) Relative body weight change by considering the body weight at the start of the treated group as 100%, the percent weight loss or gain was calculated on subsequent days of treatment. (C) and (G) Tumor weight between treatment groups and vehicle (saline) group of BEL-7404 tumor-bearing mice and BEL-7402 tumor-bearing mice. […] (I) The expression protein level of TRF1, mutp53, hTERT, TRF2, c-myc, and 53BP1 were analyzed by western blot in BEL-7404 xenograft models treated with 8 mg/kg and 4 mg/kg complex 6, and 20 mg/kg 5-FU, respectively. (J) The whole-BEL-7404 xenograft model extracts were prepared and analyzed by Western blot analysis using antibodies against TRF1, mutp53, hTERT, TRF2, c-myc, and 53BP1. […] Western blotting bands from three independent measurements were quantified with Image J. in (I). […]
(In general: In western blotting, separated proteins are transferred to a membrane and probed.)

Results on 1 substance are retold here after publication PMC5617480 (Oncotarget, 2017).

On to cis-[PtCl2(S-(–)-FOA)] [complex 6], for which the “expression of mutp53, c-myc, and hTERT” value is reported as “down-regulated”; the “protein expression of TRF1, TRF2, and 53BP1” value is “significantly up-regulated”.
